Results: patent US20090053199A1, “Stable Dairy Components Effective for Fat Loss” (priority 2005, published 2009)

Test system: transgenic mice expressing agouti specifically in adipocytes under the control of the aP2 promoter
Experiment: Example 2: weight, fat pad and muscle mass after six weeks on diets including fresh whey products
Assay type: in vivo
Conditions: Example 2, FIG. 11, 1 = Ad Lib, 2 = loCa, 3 = milk, 4 = fresh whey protein, 5 = casein, 6 = soy, 7 = fresh whey mineral, 8 = fresh whey mineral/ACE
Source text: The same animals were used as in Example 1. […] All diets had 25% fat (lard+soy oil), with sucrose as sole carbohydrate and the proteins indicated as the sole protein source. Group 1 continued for 6 weeks on the above diet ad libitum. Groups 2-8 continued for six weeks on a restricted diet (70% of the ad libitum energy intake). […] Group 8 used a fresh whey mineral isolate with a whey-derived ACE-inhibitor (e.g., BIPRO). During the six weeks, body weight, food intake and core temperature were measured weekly. […] Specifically, core temperature was monitored weekly as an indirect metabolic index using a thermocouple, and fasting insulin (by radioimmunoassay), leptin (by radioimmunoassay) and glucose (by glucose oxidase) levels were assessed at baseline and at weeks 2, and 6. At the conclusion of the study, all mice were sacrificed under isofluorane anaesthesia and individual subcutaneous and visceral fat depots were excised and weighed for comparison of fat accumulation among the groups and assessment of adipocyte size and number via a Coulter Counter method. Aliquots of adipose tissue were then immediately frozen in liquid nitrogen for subsequent study of gene expression.

For `O=C([O-])[O-].[Ca+2]` [calcium carbonate], the “gastrocnemius muscle mass (most to least), Benefit Ranking” value was “did not modify or attenuate this decrease”.
